Measured values reported in article PMC6030159 (Scientific Reports, 2018).
“Also recorded” adds a separate entry of the source.

Legend:
[1] = test system: endogenous MYC protein; test: Western blot of endogenous MYC in HeLa cells; assay type: cell-based; conditions: 10 μM, 24 hours
Protocol: These assays were performed essentially as described in[67],[68]. For further information on immunohistochemistry, and on primers and antibodies, see Supplementary Information.

[2] = test system: T1, MYC:MAX; test: Gaussia luciferase complementation (GLuc) MYC:MAX; assay type: cell-based, human; conditions: 25 μM, 17 hours, HEK293 cells
T1 construct: fused to full length MYC (MYC-GLuc-C) and MAX (MAX-GLuc-N), respectively; expressed in transfected cells; host or cells: HEK293
Protocol: The protein fragment complementation assay using the Gaussia luciferase has been described. 0.2–0.4 μg of each GLuc-construct (see Supplementary Information) together with 0.05–0.2 μg pCMV-Luc (Firefly luciferase) were transiently transfected into HEK293 or COS-7 cells in 6-well plates. 24 hours later cells were treated with compound (10–25 μM) or DMSO. After another 17 hours, the cells were harvested and lyzed in passive lysis buffer (Promega) supplemented with complete protease inhibitor (Roche). After 60 min incubation at room temperature 20 μM D-luciferin was added (substrate of Firefly luciferase) and luminescence was measured in a Lumat LB9501 (Berthold) or OmegaFluostar (BMG Labtech) luminometer. Directly after, Gaussia luciferase substrate Coelenterazine (Promega) was added to a final concentration of 20 μM in a mixture with “Stop n’ Glow” (Promega) and the luciferase activity was measured. The ratio between Gaussia and Firefly luciferase values were calculated and normalized to DMSO-treated control cells.

[3] = test system: MYC-family protein levels; set-up: method as in PMID 28976731, PMID 24859015, PMID 23733953; conditions: cited from earlier work
[4] = molecular target: MYC; set-up: method as in PMID 24859015; conditions: read-out: KD for MYC by SPR; cited from earlier work
[5] = test system: MAX; set-up: method as in PMID 25114221; conditions: cited from earlier work
[6] = test system: MAX:MAX:DNA; set-up: method as in PMID 28976731, PMID 25114221; conditions: fluorescence polarization; read-out: IC50, MAX:MAX:DNA interaction; cited from earlier work
[7] = test system: tumor cell growth in vivo; conditions: cited from earlier work
[8] = test system: recombinant MYC:MAX:DNA; set-up: method as in PMID 28976731, PMID 25114221; conditions: fluorescence polarization; read-out: IC50, MYC:MAX:DNA interaction; cited from earlier work
[9] = molecular target: T2, MYC bHLHZip (Homo sapiens, UniProt P01106); test: SPR direct binding to immobilized MYC; conditions: up to 8 μM
T2 construct: 6xHis (N); made in house; host or cells: E. coli BL21 (DE3), pET28a; purified in denaturing conditions
Protocol: Further, MYCMI-6 binding to MAX, MXD1 (MAD1) (Figs 4C and S5C and D), p53 (Fig. 4D), BSA (Suppl. Fig. S5E) and YFP (data not shown) were negligible. Binding to BCL-XL was only 10% of the theoretical maximum at 2 μM MYCMI-6 (Suppl. Fig. S5F).
The MYC SPR assay was carried out as described above with MYCbHLHZip immobilized to a level of 800–1000 RU. For kinetic binding experiments, a Langmuir 1:1 binding event was applied using the Biacore T200 Evaluation Software 2.0 (GE Healthcare) to determine association (ka) and dissociation (kd) constants of the compound and to calculate affinity (KD) by the formula; KD = kd/ka. Binding responses from equilibrium binding experiments were plotted against compound concentration and KD values were determined at 50% of the theoretical Rmax with the formula Rmax = (MW analyte/MW ligand) × immobilized ligand level on the chip (RU) × stoichiometry (1:1). Same coupling method described above was used to immobilize the control proteins. MAX was immobilized to approximately 2000 RU, MAD to 600 RU, BSA to 1000 RU, p53 to 3000 RU and BCL-XL, to 500 RU.

[10] = molecular target: T3, MYCbHLHZip:MAXbHLHZip (Homo sapiens, UniProt P01106); test: SPR MYC:MAX heterodimer formation assay; assay type: binding; conditions: KJ-Pyr-9 up to 10 μM
T3 construct: 6xHis (N); made in house; host or cells: E. coli BL21 (DE3), pET28a
Protocol: The SPR method is a highly sensitive assay to determine the affinity between protein and ligand and to measure the kinetics of the interaction. In the SPR MYC:MAX interaction assay, MAXbHLHZip was covalently attached onto a sensor chip and MYCbHLHZip pre-mixed with compound was injected over the surface and thereafter allowed to dissociate.
The SPR experiments were performed at 25 °C using a Biacore T200 (GE Healthcare) instrument kindly provided by SciLifeLab Solna. An amino coupling procedure was used to immobilize protein on a CM5 sensor chip (GE Healthcare). Sensorgrams were generated by subtraction of the reference (blank immobilized) surface. All details will be described in Castell et al. (manuscript in preparation). In general, for the MYC:MAX interaction assay, 200–500 RU of MAXbHLHZip was immobilized and 100 nM MYCbHLHZip pre-incubated with compound in PBS supplemented with 0.05% Tween-20 and 1% DMSO was injected with a flow rate of 30 µl/min and allowed to dissociate. MAX was regenerated by injection of PBS buffer supplemented with Urea.

[11] = test system: MYCN-amplified neuroblastoma cells (IMR-32, Kelly, SK-N-DZ); test: Resazurin growth assay, MYCN-amplified neuroblastoma cell lines; assay type: cell-based, human; conditions: MYCMI-6 6.25 μM, MYCMI-11 and MYCMI-14 25 μM, 10058-F4 64 μM, 48 hours
Source text: HEK293A, MCF7, MDA-MB231, SK-N-F1, SK-N-RA, SK-N-AS, COS-7, HeLa, BJ cells, and Rat1 fibroblasts TGR-1 (wt), HO15.19 (MYC knockout) and HOmyc3 (MYC reconstituted HO15.19) were maintained in DMEM. The neuroblastoma cell lines Kelly, IMR-32 and SK-N-DZ, and the Burkitt’s lymphoma cell lines Mutu, Daudi and ST486 were kept in RPMI. SK-N-BE(2) cells were maintained in a 1:1 mixture of EMEM and F12 media, supplemented with 1% non-essential amino acid solution (NEAA) and 0.5% Glutamine. U2OS-MYC-ER cell lines were cultured in phenol-red free DMEM and treated with 100 nM 4-hydroxytamoxifen (HOT) (Sigma-Aldrich) to activate MYC-ER. IMR-90 was maintained in MEM. All media were supplemented with 10% FBS and 1% penicillin and streptomycin and kept at 37 °C and 5% CO2. All cell lines were mycoplasma free. Cell proliferation assays were performed as described in Supplementary Information. […]
Cell proliferation assays. Cell growth and viability was estimated in triplicates with WST-1
(Roche) or Resazurin sodium salt (Sigma-Aldrich) assays in medium at 37°C and 5% CO 2 for
2 hours after which absorbance or fluorescence, respectively, was measured with an Omega
Fluostar (BMG Labtech) in a 96 well plate format. […]

T3 sequence (P01106 367-447 limits assumed): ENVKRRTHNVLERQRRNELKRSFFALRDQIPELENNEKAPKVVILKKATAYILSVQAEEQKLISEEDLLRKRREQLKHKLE
T2 sequence (P01106 367-447 limits assumed): as above

With `CCN(CC)CC[n+]1ccc2c(C)c3[nH]c4ccccc4c3c(C)c2c1` [MYCMI-7] the “effect on endogenous MYC protein levels (western blot)” value [1] was “reduced MYC protein expression” and the “MYC:MAX GLuc activity” value [2] was “most potent”.

For `O=[N+]([O-])c1ccc(Nc2ccccc2-c2ccccc2)c2nonc12` [10074-G5], the “effect on MYC-family protein levels” value [3] is given as “down-regulate” and the Kd [4] is given as about 32 µM.

For `NC(=O)c1ccc(-c2cc(-c3ccc([N+](=O)[O-])cc3)nc(-c3ccco3)c2)cc1` [KJ-Pyr-9], the “binding to MAX, BSI” value [5] is given as “not MAX”, the IC50 [6] is given as about 30 µM and the “tumor cell growth in vivo, mouse tumor models” value [7] is given as “Inhibition of tumor cell growth in vivo”. The IC50 [8] was about 10 µM, the “binding to immobilized MYC (SPR), in words” value [9] was “not detect any binding” and the “effect on MYC:MAX formation (SPR), in words” value [10] was “no effect; also recorded: not affect the MYC:MAX interaction”.

In the case of `CCc1ccc(/C=C2/SC(=S)NC2=O)cc1` [10058-F4], the “effect on MYC-family protein levels” value [3] is listed as “down-regulate”, the Kd [4] is listed as about 40 µM and the “tumor cell growth in vivo, mouse tumor models” value [7] is listed as “Inhibition of tumor cell growth in vivo”. For the same molecule, the “growth of MYCN-amplified versus MYCN-non-amplified neuroblastoma cell lines” value [11] was “reduced growth of the MYCN-amplified cell lines significantly stronger than the MYCN-non-amplified cell lines”.
